This is an account of results in patent US7979946B2, “Polish and polishing mitts” (Kimberly-Clark Worldwide, Inc., priority 2006, dated 2011).

The assay concerns mold. Nature of the assay: Inhibition of mold growth in a polish applied to a mitt. Format: cell-based. To be noted: chemical added to base polish (Pedag Deluxe Cream Polish), samples compared with each other. An excerpt: In each of the following Examples, a polish was applied to a mitt. The base polish was provided by Pedag USA, Inc. (Seattle) under the trade name Deluxe Cream Polish. […] The second sheet layer was constructed of a high-loft spunbond web of bicomponent polypropylene/polyethylene fibers with a side-by-side orientation laminated to a film of high density polyethylene on the inside surface. […] The first sheet layer and the second sheet layer were ultrasonically bonded leaving an opening for the insertion of two fingers (such as at seams 16 of FIGS. 1-3). Several different chemicals were tested to determine their ability to inhibit mold growth in a polish that has been applied to a mitt. For example, chloroacetamide, polyaminopropyl biguanide available under the name Cosmocil CQ from ICI Americas Inc., organosilicone quaternary ammonium compound available under the name AEM 5700 from Dow Chemical by Aegis Environmental Management (Midland, Mich.), a combination of combination of isothiazolones and N-/O-formals available under the name Parmetol DF35 from Schulke & Mayr, and methylparaben were each added to a base polish sample. The resulting polish samples were then applied to mitts. The ability of the polish to inhibit mold growth for each sample was then compared.

“Also recorded” adds a separate entry of the source.

On to `CCC(=O)O` [propanoic acid], for which the “ability of the polish to inhibit mold growth” value is listed as “inhibited growth of mold better than the other tested chemicals”.
For the molecule `COC(=O)c1ccc(O)cc1` [methylparaben], the “ability of the polish to inhibit mold growth” value is reported as “inhibited growth of mold better than the other tested chemicals; also recorded: best results of all samples”.
